Data published in patent publication US6677460B1, “Aromatic carboxylic acid bicyclic sulfur compounds” (Idemitsu Kosan Company, Limited, priority 1993, dated 2004).

Tests used:
Type in all cases: in vivo
[1] = tested on: velvetleaf; test: Upland soil treatment test (8); settings: 20th day after spraying
Protocol: (§1) 90 Parts by weight of the above carrier and 10 parts by weight of each of Compounds obtained in the above Preparation Examples were uniformly pulverized and mixed to obtain herbicides. Further, for Herbicide Comparative Examples, comparative herbicides were prepared by uniformly pulverizing and mixing 90 parts by weight of the above carrier and 10 parts by weight of each of the following Compounds x, y, A, B and C.
(§2) (8) Biological Test (Upland Soil Treatment Test, Herbicide Examples 48-52 and Herbicide Comparative Examples 13 and 14)
(§3) Seeds of weeds such as large crabgrass, barnyard brass, green foxtail, cocklebur, velvetleaf and slender amarnth and seeds of corn, wheat and barley were sown in 1/5,000-are Wagner pots filled with upland soil, and covert with upland soil. Then, a predetermined amount of the herbicide prepared in the above (1) was suspended in water and uniformly sprayed onto the soil surface. Thereafter, the plant were grown in the greenhouse, and on the 20th day after the spraying treatment, the herbicide was evaluated for herbicidal efficacy.
(§4) The herbicidal efficacy and the phytotoxicity to crops are shown on the basis of the ratings described in (2) Foliar treatment test.

[2] = tested on: cocklebur; test: Upland soil treatment test (8); settings: 20th day after spraying
Protocol: as §1, §2, §3, §4

[3] = tested on: green foxtail; test: Upland soil treatment test (8); settings: 20th day after spraying
Protocol: as §1, §2, §3, §4

[4] = tested on: large crabgrass; test: Upland soil treatment test (8); settings: 20th day after spraying
Protocol: as §1, §2, §3, §4

[5] = tested on: barnyard grass; test: Upland soil treatment test (8); settings: 20th day after spraying
Protocol: as §1, §2, §3, §4

[6] = tested on: slender amaranth; test: Upland soil treatment test (8); settings: 20th day after spraying
Protocol: as §1, §2, §3, §4

[7] = tested on: velvetleaf; test: Foliar treatment test (7); settings: 20th day after spraying
Protocol: as §1
(§5) (7) Biological Test (Foliar Treatment Test, Herbicide Examples 43-47 and Comparative Examples 11 and 12)
as §3, with “barnyardgrass,” for “barnyard brass,”, “amaranth” for “amarnth”, “covered” for “covert”, “The seeds were grown in a greenhouse, and at the stage of 1 to 2 leaves of these plants,” for “Then,”, “leaf and stalk portions at a rate of 200 liter/10 ares.” for “the soil surface.”, “plants” for “plant”
(§6) The herbicidal efficacy and phytotoxcity to crops were shown on the basis of the following ratings.
(§7) The ratio of remaining plant weight to non-treated was determined on the basis of the ratio of remaining plant weight to non-treated=(remaining plant weight in treated plot/remaining plant weight in non-treated plot)×100. This is also applicable to biological tests hereinafter.

[8] = tested on: barnyardgrass; test: Foliar treatment test (7); settings: 20th day after spraying
Protocol: as §1, §5
as §3, with “barnyardgrass,” for “barnyard brass,”, “amaranth” for “amarnth”, “covered” for “covert”, “The seeds were grown in a greenhouse, and at the stage of 1 to 2 leaves of these plants,” for “Then,”, “leaf and stalk portions at a rate of 200 liter/10 ares.” for “the soil surface.”, “plants” for “plant”
as §6, §7

[9] = tested on: cocklebur; test: Foliar treatment test (7); settings: 20th day after spraying
Protocol: as §1, §5
as §3, with “barnyardgrass,” for “barnyard brass,”, “amaranth” for “amarnth”, “covered” for “covert”, “The seeds were grown in a greenhouse, and at the stage of 1 to 2 leaves of these plants,” for “Then,”, “leaf and stalk portions at a rate of 200 liter/10 ares.” for “the soil surface.”, “plants” for “plant”
as §6, §7

[10] = tested on: green foxtail; test: Foliar treatment test (7); settings: 20th day after spraying
Protocol: as §1, §5
as §3, with “barnyardgrass,” for “barnyard brass,”, “amaranth” for “amarnth”, “covered” for “covert”, “The seeds were grown in a greenhouse, and at the stage of 1 to 2 leaves of these plants,” for “Then,”, “leaf and stalk portions at a rate of 200 liter/10 ares.” for “the soil surface.”, “plants” for “plant”
as §6, §7

[11] = tested on: large crabgrass; test: Foliar treatment test (7); settings: 20th day after spraying
Protocol: as §1, §5
as §3, with “barnyardgrass,” for “barnyard brass,”, “amaranth” for “amarnth”, “covered” for “covert”, “The seeds were grown in a greenhouse, and at the stage of 1 to 2 leaves of these plants,” for “Then,”, “leaf and stalk portions at a rate of 200 liter/10 ares.” for “the soil surface.”, “plants” for “plant”
as §6, §7

[12] = tested on: slender amaranth; test: Foliar treatment test (7); settings: 20th day after spraying
Protocol: as §1, §5
as §3, with “barnyardgrass,” for “barnyard brass,”, “amaranth” for “amarnth”, “covered” for “covert”, “The seeds were grown in a greenhouse, and at the stage of 1 to 2 leaves of these plants,” for “Then,”, “leaf and stalk portions at a rate of 200 liter/10 ares.” for “the soil surface.”, “plants” for “plant”
as §6, §7

[13] = tested on: velvetleaf; test: Foliar treatment test (2); settings: dosage 10 g a.i./are, 20th day after treatment
Protocol: as §1
(§8) (2) Biological Test (Foliar Treatment Test, Herbicide Examples 1 and 2 and Herbicide Comparative Examples 1 and 2)
(§9) Seeds of weeds such as large crabgrass, barnyard grass, green foxtail, cocklebur, velvetleaf and slender amaranth and seeds of corn, wheat and barley were sown in 1/5,000-are Wagner pots filled with upland soil, and covered with upland soil. The seeds were grown in a greenhouse, and at the stage of 1˜2 leaves of these plants, a predetermined amount of the herbicide prepared in the above (1) was suspended in water and uniformly sprayed onto leaf and stalk portions at a rate of 200 liter/10 are. Thereafter, the plants were grown in the greenhouse, and on 20th day after the treatment, the herbicide was evaluated for herbicidal efficacy.
as §6, §7

[14] = tested on: cocklebur; test: Foliar treatment test (2); settings: dosage 10 g a.i./are, 20th day after treatment
Protocol: as §1, §8, §9, §6, §7

[15] = tested on: green foxtail; test: Foliar treatment test (2); settings: dosage 10 g a.i./are, 20th day after treatment
Protocol: as §1, §8, §9, §6, §7

[16] = tested on: large crabgrass; test: Foliar treatment test (2); settings: dosage 10 g a.i./are, 20th day after treatment
Protocol: as §1, §8, §9, §6, §7

[17] = tested on: barnyard grass; test: Foliar treatment test (2); settings: dosage 10 g a.i./are, 20th day after treatment
Protocol: as §1, §8, §9, §6, §7

[18] = tested on: slender amaranth; test: Foliar treatment test (2); settings: dosage 10 g a.i./are, 20th day after treatment
Protocol: as §1, §8, §9, §6, §7

[19] = tested on: velvetleaf; test: Upland soil treatment test (3); settings: dosage 10 g a.i./are, 20th day after treatment
Protocol: as §1
(§10) (3) Biological Test (Upland Soil Treatment Test, Herbicide Examples 3 and 4 and Herbicide Comparative Examples 3 and 4)
as §3, with “barnyardgrass,” for “barnyard brass,”, “amaranth” for “amarnth”, “covered” for “covert”, “plants” for “plant”, “on” for “on the”, “the” for “the spraying”
as §4

[20] = tested on: cocklebur; test: Upland soil treatment test (3); settings: dosage 10 g a.i./are, 20th day after treatment
Protocol: as §1, §10
as §3, with “barnyardgrass,” for “barnyard brass,”, “amaranth” for “amarnth”, “covered” for “covert”, “plants” for “plant”, “on” for “on the”, “the” for “the spraying”
as §4

[21] = tested on: green foxtail; test: Upland soil treatment test (3); settings: dosage 10 g a.i./are, 20th day after treatment
Protocol: as §1, §10
as §3, with “barnyardgrass,” for “barnyard brass,”, “amaranth” for “amarnth”, “covered” for “covert”, “plants” for “plant”, “on” for “on the”, “the” for “the spraying”
as §4

[22] = tested on: large crabgrass; test: Upland soil treatment test (3); settings: dosage 10 g a.i./are, 20th day after treatment
Protocol: as §1, §10
as §3, with “barnyardgrass,” for “barnyard brass,”, “amaranth” for “amarnth”, “covered” for “covert”, “plants” for “plant”, “on” for “on the”, “the” for “the spraying”
as §4

[23] = tested on: barnyard grass; test: Upland soil treatment test (3); settings: dosage 10 g a.i./are, 20th day after treatment
Protocol: as §1, §10
as §3, with “barnyardgrass,” for “barnyard brass,”, “amaranth” for “amarnth”, “covered” for “covert”, “plants” for “plant”, “on” for “on the”, “the” for “the spraying”
as §4

[24] = tested on: slender amaranth; test: Upland soil treatment test (3); settings: dosage 10 g a.i./are, 20th day after treatment
Protocol: as §1, §10
as §3, with “barnyardgrass,” for “barnyard brass,”, “amaranth” for “amarnth”, “covered” for “covert”, “plants” for “plant”, “on” for “on the”, “the” for “the spraying”
as §4
Note: ranges in brackets are in %.

CCn1ncc(C(=O)c2cc(C)c3c(c2C)CCCS3)c1O [Compound 47-2, 5,8-dimethyl-6-(1-ethyl-5-hydroxypyrazol-4-yl)carbonylthiochroman]
Herbicidal Efficacy velvetleaf ([1]; 300 g a.i./hectare): 5 (0) | Herbicidal Efficacy cocklebur ([2]; 300 g a.i./hectare): 0 (81-100) | Herbicidal Efficacy green foxtail ([3]; 300 g a.i./hectare): 4 (1-20) | Herbicidal Efficacy large crabgrass ([4]; 300 g a.i./hectare): 1 (61-80) | Herbicidal Efficacy barnyard grass ([5]; 300 g a.i./hectare): 5 (0) | Herbicidal Efficacy slender amaranth ([6]; 300 g a.i./hectare): 5 (0) | Herbicidal Efficacy velvetleaf ([7]; 300 g a.i./hectare): 5 (0) | Herbicidal Efficacy barnyard grass ([8]; 300 g a.i./hectare): 2 (41-60) | Herbicidal Efficacy cocklebur ([9]; 300 g a.i./hectare): 5 (0) | Herbicidal Efficacy green foxtail ([10]; 300 g a.i./hectare): 5 (0) | Herbicidal Efficacy large crabgrass ([11]; 300 g a.i./hectare): 5 (0) | Herbicidal Efficacy slender amaranth ([12]; 300 g a.i./hectare): 5 (0)

Pyrazolate [x, reference compound]
Herbicidal Efficacy velvetleaf ([1]; 1000 g a.i./hectare): 0 (81-100) | Herbicidal Efficacy cocklebur ([2]; 1000 g a.i./hectare): 0 (81-100) | Herbicidal Efficacy green foxtail ([3]; 1000 g a.i./hectare): 0 (81-100) | Herbicidal Efficacy large crabgrass ([4]; 1000 g a.i./hectare): 0 (81-100) | Herbicidal Efficacy barnyard grass ([5]; 1000 g a.i./hectare): 0 (81-100) | Herbicidal Efficacy slender amaranth ([6]; 1000 g a.i./hectare): 1 (61-80) | Herbicidal Efficacy velvetleaf [13]: 0 (81-100) | Herbicidal Efficacy cocklebur [14]: 0 (81-100) | Herbicidal Efficacy green foxtail [15]: 0 (81-100) | Herbicidal Efficacy large crabgrass [16]: 0 (81-100) | Herbicidal Efficacy barnyard grass [17]: 0 (81-100) | Herbicidal Efficacy slender amaranth [18]: 1 (61-80) | Herbicidal Efficacy velvetleaf [19]: 0 (81-100) | Herbicidal Efficacy cocklebur [20]: 0 (81-100) | Herbicidal Efficacy green foxtail [21]: 0 (81-100) | Herbicidal Efficacy large crabgrass [22]: 0 (81-100) | Herbicidal Efficacy barnyard grass [23]: 0 (81-100) | Herbicidal Efficacy slender amaranth [24]: 0 (81-100) | Herbicidal Efficacy velvetleaf ([7]; 1000 g a.i./hectare): 0 (81-100) | Herbicidal Efficacy barnyard grass ([8]; 1000 g a.i./hectare): 0 (81-100) | Herbicidal Efficacy cocklebur ([9]; 1000 g a.i./hectare): 0 (81-100) | Herbicidal Efficacy green foxtail ([10]; 1000 g a.i./hectare): 0 (81-100) | Herbicidal Efficacy large crabgrass ([11]; 1000 g a.i./hectare): 0 (81-100) | Herbicidal Efficacy slender amaranth ([12]; 1000 g a.i./hectare): 0 (81-100)
